17 molecules from PubChem BioAssay AID248 (DTP/NCI, 2004) can be followed below.

The experiment relates to L1210 leukemia ip in BDF1 mice, survival T/C. The experiment in a line: NCI In Vivo Anticancer Drug Screen. Data for tumor model L1210 Leukemia (intraperitoneal) in B6D2F1 (BDF1) mice. The note with it: endpoint: mean survival time, higher = longer survival. Put shortly: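 In this screen, tumor-bearing mice given compound are compared to those given vehicle, and their survival values are reported as a treated-to-control quotient.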

The mark [1] stands for this setting: dose: 100.0 mg/kg/injection, schedule: Q01DX009 (ip), vehicle: Klucel (hydroxypropylcellulose) (HPC).
The mark [2] stands for this setting: dose: 200.0 mg/kg/injection, schedule: Q01DX009 (ip), vehicle: Klucel (hydroxypropylcellulose) (HPC).
[3] abbreviates: dose: 400.0 mg/kg/injection, schedule: Q01DX009 (ip), vehicle: Klucel (hydroxypropylcellulose) (HPC).
[4] abbreviates: dose: 100.0 mg/kg/injection, schedule: Q04DX003 (ip), vehicle: saline with Tween-80.
Where [5] appears, read: dose: 200.0 mg/kg/injection, schedule: Q04DX003 (ip), vehicle: saline with Tween-80.
Setting [6] is: dose: 400.0 mg/kg/injection, schedule: Q04DX003 (ip), vehicle: saline with Tween-80.
Setting [7] is: dose: 100.0 mg/kg/injection, schedule: Q01DX009 (ip), vehicle: saline with Tween-80.
The mark [8] stands for this setting: dose: 200.0 mg/kg/injection, schedule: Q01DX009 (ip), vehicle: saline with Tween-80.
[9] abbreviates: dose: 400.0 mg/kg/injection, schedule: Q01DX009 (ip), vehicle: saline with Tween-80.
[10] abbreviates: dose: 12.5 mg/kg/injection, schedule: Q01DX009 (ip), vehicle: saline.
Where [11] appears, read: dose: 12.5 mg/kg/injection, schedule: Q04DX003 (ip), vehicle: saline.
Setting [12] is: dose: 25.0 mg/kg/injection, schedule: Q01DX009 (ip), vehicle: saline.
Where [13] appears, read: dose: 25.0 mg/kg/injection, schedule: Q04DX003 (ip), vehicle: saline.
Where [14] appears, read: dose: 50.0 mg/kg/injection, schedule: Q04DX003 (ip), vehicle: saline.

SMILES strings stand for the structures. Where “and” joins values, the source holds several entries; their conditions need not be identical. Equal entries are not always repeated. Inconclusive results and toxic doses are left out.

For the molecule `CSc1cc(C(=O)Nc2ccc(C3=NCCN3)cc2)cc(C(=O)Nc2ccc(C3=NCCN3)cc2)c1`, the T/C is, setting by setting: (dose: 2.75 mg/kg/injection, schedule: Q01DX Z (ip), vehicle: carboxymethylcellulose (CMC)) 110 % of control; (dose: 5.5 mg/kg/injection, schedule: Q01DX Z (ip), vehicle: carboxymethylcellulose (CMC)) 102 % of control; (dose: 11.0 mg/kg/injection, schedule: Q01DX Z (ip), vehicle: carboxymethylcellulose (CMC)) 96 % of control; (dose: 22.0 mg/kg/injection, schedule: Q01DX Z (ip), vehicle: carboxymethylcellulose (CMC)) 119 % of control; (dose: 31.0 mg/kg/injection, schedule: Q01DX Z (ip), vehicle: carboxymethylcellulose (CMC)) 225 % of control; (dose: 45.0 mg/kg/injection, schedule: Q01DX Z (ip), vehicle: carboxymethylcellulose (CMC)) 174 % of control. Besides, the T/C runs as follows: (dose: 62.0 mg/kg/injection, schedule: Q01DX Z (ip), vehicle: carboxymethylcellulose (CMC)) 242 % of control; (dose: 90.0 mg/kg/injection, schedule: Q01DX Z (ip), vehicle: carboxymethylcellulose (CMC)) 168 % of control; (dose: 125.0 mg/kg/injection, schedule: Q01DX Z (ip), vehicle: carboxymethylcellulose (CMC)) 165 % of control; (dose: 180.0 mg/kg/injection, schedule: Q01DX Z (ip), vehicle: carboxymethylcellulose (CMC)) 256 % of control; (dose: 250.0 mg/kg/injection, schedule: Q01DX Z (ip), vehicle: carboxymethylcellulose (CMC)) 157 % of control; (dose: 360.0 mg/kg/injection, schedule: Q01DX Z (ip), vehicle: carboxymethylcellulose (CMC)) 100 % of control.
For `Nc1nc2nc(-c3ccc([N+](=O)[O-])cc3)nc(N)c2nc1-c1ccc(N(CCO)CCO)cc1`, the T/C is, setting by setting: (dose: 100.0 mg/kg/injection, schedule: Q01DX001 (ip), vehicle: saline) 90 % of control; (dose: 200.0 mg/kg/injection, schedule: Q01DX001 (ip), vehicle: saline) 95 % of control; (dose: 400.0 mg/kg/injection, schedule: Q01DX001 (ip), vehicle: saline) 95 % of control.
`COc1ccc(COC(=O)Nc2ccc(Br)cc2)cc1`: the T/C was 101 % of control under setting [1], 98 % of control under setting [2] and 103 % of control under setting [3].
With `COC1OC(CCl)C(O)C(O)C1O` (stereo unspecified), the T/C is, setting by setting: (dose: 100.0 mg/kg/injection, schedule: Q04DX002 (ip), vehicle: saline) 98 % of control; under setting [4], 93 % of control; (dose: 200.0 mg/kg/injection, schedule: Q04DX002 (ip), vehicle: saline) 103 % of control; under setting [5], 100 % of control; (dose: 400.0 mg/kg/injection, schedule: Q04DX002 (ip), vehicle: saline) 106 % of control; under setting [6], 89 % of control.
For the molecule `CCOC(=O)Nc1ccccc1OCC`, the T/C by setting is: under setting [1], 96 % of control; under setting [2], 95 % of control; under setting [3], 96 % of control.
In the case of `Clc1ccc(OCc2sc3ccc(Cl)cc3c2CN2CCCCC2)cc1`, the T/C was 88 % of control (dose: 25.0 mg/kg/injection, schedule: Q04DX003 (ip), vehicle: saline with Tween-80); 87 % of control (dose: 50.0 mg/kg/injection, schedule: Q04DX003 (ip), vehicle: saline with Tween-80); 90 % of control and 92 % of control under setting [4].
On to `CCSCC1C=CC(n2cnc3c(N)ncnc32)O1` (stereo unspecified), for which the T/C was 109 % of control (dose: 50.0 mg/kg/injection, schedule: Q01DX001 (ip), vehicle: carboxymethylcellulose (CMC)); 109 % of control (dose: 100.0 mg/kg/injection, schedule: Q01DX001 (ip), vehicle: carboxymethylcellulose (CMC)); 98 % of control (dose: 200.0 mg/kg/injection, schedule: Q01DX001 (ip), vehicle: carboxymethylcellulose (CMC)); 109 % of control (dose: 400.0 mg/kg/injection, schedule: Q01DX001 (ip), vehicle: carboxymethylcellulose (CMC)).
As for `CC1(C)CC(=O)C(C23C=CC2=C(CO)C(=O)OC3)C1` (stereo unspecified), the T/C is 96 % of control (dose: 5.0 mg/kg/injection, schedule: Q01DX001 (ip), vehicle: saline); 96 % of control (dose: 10.0 mg/kg/injection, schedule: Q01DX001 (ip), vehicle: saline); 98 % of control (dose: 20.0 mg/kg/injection, schedule: Q01DX001 (ip), vehicle: saline); 110 % of control (dose: 40.0 mg/kg/injection, schedule: Q01DX001 (ip), vehicle: saline).
In the case of `Nn1c(C(F)(F)F)n[nH]c1=S`, the T/C is 103 % of control (dose: 100.0 mg/kg/injection, schedule: Q04DX003 (ip), vehicle: alcohol); 101 % of control (dose: 200.0 mg/kg/injection, schedule: Q04DX003 (ip), vehicle: alcohol); 95 % of control (dose: 400.0 mg/kg/injection, schedule: Q04DX003 (ip), vehicle: alcohol).
In the case of `COc1cc(C=O)ccc1OC(=O)Nc1cccc(Cl)c1Cl`, the T/C by setting is: under setting [7], 90 % of control; under setting [8], 90 % of control; under setting [9], 92 % of control.
Regarding `CCN(CC)CCC(CCN(CC)CC)(CNC(=O)CN(CC)CC)c1cccc2ccccc12`, the T/C runs as follows: under setting [10], 97 % of control; under setting [11], 87 % of control; under setting [12], 114 % of control; under setting [13], 95 % of control; (dose: 50.0 mg/kg/injection, schedule: Q01DX009 (ip), vehicle: saline) 108 % of control; under setting [14], 88 % of control.
For `Cc1ccc(COC(=O)Nc2ccc(Cl)c([N+](=O)[O-])c2)cc1`, the T/C by setting is: under setting [7], 92 % of control; under setting [4], 102 % of control; under setting [8], 100 % of control; under setting [5], 100 % of control; under setting [9], 95 % of control; under setting [6], 100 % of control.
On to `CC(c1ccc2ccccc2c1)c1ccccc1C(=O)O` (stereo unspecified), for which the T/C by setting is: (dose: 100.0 mg/kg/injection, schedule: Q01DX001 (ip), vehicle: gum acacia) 94 % of control; (dose: 200.0 mg/kg/injection, schedule: Q01DX001 (ip), vehicle: gum acacia) 102 % of control; (dose: 400.0 mg/kg/injection, schedule: Q01DX001 (ip), vehicle: gum acacia) 89 % of control.
In the case of `COc1ccc2c(c1)C(=O)c1ccccc1-2`, the T/C was 101 % of control under setting [4], 98 % of control under setting [5] and 109 % of control under setting [6].
For `CCC(=O)NCC(=O)O`, the T/C (dose: 6.25 mg/kg/injection, schedule: Q01DX009 (ip), vehicle: saline) was 103 % of control; the T/C (dose: 6.25 mg/kg/injection, schedule: Q04DX003 (ip), vehicle: saline) was 96 % of control; the T/C under setting [10] is 95 % of control; the T/C under setting [11] is 96 % of control; the T/C under setting [12] is 92 % of control; the T/C under setting [13] was 100 % of control.
For the molecule `O=C(Nc1ccc(NC(=O)Nc2cccc(C3=NCCCN3)c2)cc1)Nc1cccc(C2=NCCCN2)c1`, the T/C (dose: 6.25 mg/kg/injection, schedule: Q01DX Z (ip), vehicle: carboxymethylcellulose (CMC)) was 101 % of control; the T/C (dose: 8.0 mg/kg/injection, schedule: Q01DX Z (oral), vehicle: carboxymethylcellulose (CMC)) is 104 % of control; the T/C (dose: 12.5 mg/kg/injection, schedule: Q01DX Z (ip), vehicle: carboxymethylcellulose (CMC)) is 102 % of control; the T/C (dose: 16.0 mg/kg/injection, schedule: Q01DX Z (oral), vehicle: carboxymethylcellulose (CMC)) was 95 % of control; the T/C (dose: 31.0 mg/kg/injection, schedule: Q01DX Z (oral), vehicle: carboxymethylcellulose (CMC)) was 97 % of control; the T/C (dose: 50.0 mg/kg/injection, schedule: Q01DX Z (ip), vehicle: carboxymethylcellulose (CMC)) was 157 % of control. The T/C reads like this: (dose: 62.0 mg/kg/injection, schedule: Q01DX Z (oral), vehicle: carboxymethylcellulose (CMC)) 103 % of control; (dose: 125.0 mg/kg/injection, schedule: Q01DX Z (oral), vehicle: carboxymethylcellulose (CMC)) 106 % of control; (dose: 250.0 mg/kg/injection, schedule: Q01DX Z (oral), vehicle: carboxymethylcellulose (CMC)) 105 % of control; (dose: 500.0 mg/kg/injection, schedule: Q01DX Z (oral), vehicle: carboxymethylcellulose (CMC)) 106 % of control.
Take `Cc1ccc(CCN)cc1C`: the T/C under setting [13] is 103 % of control; the T/C under setting [14] was 101 % of control; the T/C (dose: 100.0 mg/kg/injection, schedule: Q04DX003 (ip), vehicle: saline) is 101 % of control and 112 % of control.
